Laboratory results published in patent US9000186B2, “Ring-fused heterocyclic derivative” (Kyowa Hakko Kirin Co., Ltd., priority 2011, dated 2015).
Like-named read-outs stand apart in the source and are kept apart here.

Target: T1, human Cav3.2 T-type Ca2+ channel (Homo sapiens, UniProt O95180)
T1 construct: expressed in transfected cells; host or cells: KJMGER8 cells (Namalwa cell-derived cell line)
Test: Inhibitory effect for intracellular calcium response via Cav3.2 T-type Ca2+ channels (FLIPR Calcium 3 Assay Kit)
Type: cell-based

[1] = human Cav3.2-expressing KJMGER8 cells (Namalwa-derived), calcium response induced by 5 mmol/L CaCl2, normalised to 3 μmol/L mibefradil, read-out: IC50 for the human Cav3.2 T-type Ca2+ current

T1 sequence (O95180 whole entry): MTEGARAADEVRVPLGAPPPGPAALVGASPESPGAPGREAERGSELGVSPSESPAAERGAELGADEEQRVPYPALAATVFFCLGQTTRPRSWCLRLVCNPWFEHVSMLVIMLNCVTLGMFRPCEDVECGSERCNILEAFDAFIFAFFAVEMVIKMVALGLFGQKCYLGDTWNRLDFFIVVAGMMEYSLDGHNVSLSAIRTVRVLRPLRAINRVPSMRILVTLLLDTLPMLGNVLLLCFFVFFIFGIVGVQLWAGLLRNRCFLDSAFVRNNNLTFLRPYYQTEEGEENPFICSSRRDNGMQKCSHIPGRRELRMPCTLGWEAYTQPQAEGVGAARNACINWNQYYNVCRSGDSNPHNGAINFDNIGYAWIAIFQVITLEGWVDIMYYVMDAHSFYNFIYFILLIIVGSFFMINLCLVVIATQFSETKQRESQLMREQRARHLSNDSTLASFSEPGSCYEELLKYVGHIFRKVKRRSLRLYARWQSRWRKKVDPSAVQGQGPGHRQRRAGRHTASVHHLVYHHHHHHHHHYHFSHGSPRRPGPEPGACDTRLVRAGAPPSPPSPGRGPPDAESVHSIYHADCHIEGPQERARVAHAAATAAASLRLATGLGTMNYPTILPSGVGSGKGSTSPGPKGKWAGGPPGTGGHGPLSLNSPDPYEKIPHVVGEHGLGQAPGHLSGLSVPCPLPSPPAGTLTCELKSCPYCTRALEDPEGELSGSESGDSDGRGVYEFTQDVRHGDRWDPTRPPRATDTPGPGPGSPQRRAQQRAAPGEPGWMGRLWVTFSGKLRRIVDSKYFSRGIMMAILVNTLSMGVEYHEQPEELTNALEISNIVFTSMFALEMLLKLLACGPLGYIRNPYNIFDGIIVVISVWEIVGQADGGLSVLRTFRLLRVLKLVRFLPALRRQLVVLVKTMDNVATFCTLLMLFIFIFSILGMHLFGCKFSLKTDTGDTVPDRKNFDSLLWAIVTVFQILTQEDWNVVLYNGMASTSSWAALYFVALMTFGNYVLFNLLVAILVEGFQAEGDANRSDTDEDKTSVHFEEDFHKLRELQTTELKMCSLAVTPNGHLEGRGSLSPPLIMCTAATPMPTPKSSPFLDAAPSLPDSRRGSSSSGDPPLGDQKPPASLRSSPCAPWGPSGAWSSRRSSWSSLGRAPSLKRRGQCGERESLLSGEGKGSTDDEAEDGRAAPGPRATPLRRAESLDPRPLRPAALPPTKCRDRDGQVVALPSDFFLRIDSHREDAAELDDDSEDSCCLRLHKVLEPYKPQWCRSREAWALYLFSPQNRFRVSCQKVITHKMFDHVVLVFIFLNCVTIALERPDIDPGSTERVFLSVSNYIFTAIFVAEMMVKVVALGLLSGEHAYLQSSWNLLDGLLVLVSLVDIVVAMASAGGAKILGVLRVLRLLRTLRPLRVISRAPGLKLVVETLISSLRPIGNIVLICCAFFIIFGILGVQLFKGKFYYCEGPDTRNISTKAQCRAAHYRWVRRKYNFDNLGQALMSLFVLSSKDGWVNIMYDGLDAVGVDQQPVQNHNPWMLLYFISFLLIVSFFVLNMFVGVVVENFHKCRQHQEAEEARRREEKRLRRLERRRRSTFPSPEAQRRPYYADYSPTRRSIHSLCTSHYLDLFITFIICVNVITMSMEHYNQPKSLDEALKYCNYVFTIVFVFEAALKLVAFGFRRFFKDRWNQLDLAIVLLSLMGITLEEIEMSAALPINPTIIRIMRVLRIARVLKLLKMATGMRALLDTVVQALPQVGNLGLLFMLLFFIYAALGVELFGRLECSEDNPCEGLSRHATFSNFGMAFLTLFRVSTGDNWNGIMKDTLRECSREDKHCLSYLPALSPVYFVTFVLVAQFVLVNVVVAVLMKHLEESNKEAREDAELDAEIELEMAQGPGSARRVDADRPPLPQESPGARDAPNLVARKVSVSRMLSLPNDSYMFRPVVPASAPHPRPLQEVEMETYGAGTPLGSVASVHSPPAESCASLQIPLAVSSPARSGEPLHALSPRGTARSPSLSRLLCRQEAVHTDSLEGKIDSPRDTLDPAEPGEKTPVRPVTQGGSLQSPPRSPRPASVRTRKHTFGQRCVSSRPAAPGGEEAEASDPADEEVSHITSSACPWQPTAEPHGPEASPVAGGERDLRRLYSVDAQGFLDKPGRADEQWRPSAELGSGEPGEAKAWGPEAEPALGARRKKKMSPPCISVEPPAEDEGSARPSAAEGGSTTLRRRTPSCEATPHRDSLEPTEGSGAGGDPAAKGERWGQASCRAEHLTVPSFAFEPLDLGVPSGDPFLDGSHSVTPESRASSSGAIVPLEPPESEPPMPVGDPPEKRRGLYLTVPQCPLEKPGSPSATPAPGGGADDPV

C=Cc1cn2c(CC3CCC(F)(F)CC3)c(C(F)(F)F)nc2cc1C(=O)Nc1ccccc1 [Compound 120, 3-(4,4-Difluorocyclohexylmethyl)-N-phenyl-2-trifluoromethyl-6-vinylimidazo[1,2-a]pyridine-7-carboxamide]
IC50 [1]: < 100 nM

Cc1c(Cl)c(C(=O)NC2CCOCC2)cc2nc(C(F)(F)F)c(CC3CCC(F)(F)CC3)n12 [Compound 124, 6-Chloro-3-(4,4-difluorocyclohexylmethyl)-5-methyl-N-(tetrahydro-2H-pyran-4-yl)-2-trifluoromethylimidazo[1,2-a]pyridine-7-carboxamide]
IC50: < 100 nM

Cc1c(I)c(C(=O)Nc2ccccc2)cc2nc(C(F)(F)F)c(CC3CCC(F)(F)CC3)n12 [Compound 125, 3-(4,4-Difluorocyclohexylmethyl)-6-iodo-5-methyl-N-phenyl-2-trifluoromethylimidazo[1,2-a]pyridine-7-carboxamide]
IC50: < 100 nM

Cc1cc(-c2nc3ccccc3[nH]2)cc2nc(C(F)(F)F)c(CC3CCC(F)(F)CC3)n12 [Compound 127, 2-{3-(4,4-Difluorocyclohexylmethyl)-5-methyl-2-trifluoromethylimidazo[1,2-a]pyridin-7-yl}-1H-benzimidazole]
IC50 [1]: < 100 nM

CC(C)c1nc2cc(C(=O)Nc3ccccc3)ccn2c1S(=O)(=O)NC(C1CC1)C1CC1 [Compound 129, 3-{N-(Dicyclopropylmethyl)sulfamoyl}-2-isopropyl-N-phenylimidazo[1,2-a]pyridine-7-carboxamide]
IC50 [1]: < 100 nM

CC(C)c1nc2cc(C(=O)Nc3ccccc3)ccn2c1S(=O)(=O)N(C(C)C)C1CC1 [Compound 130, 3-(N-Cyclopropyl-N-isopropylsulfamoyl)-2-isopropyl-N-phenylimidazo[1,2-a]pyridine-7-carboxamide]
IC50: < 100 nM

CC(C)c1nc2cc(C(=O)Nc3ccccc3)ccn2c1S(=O)(=O)N(C1CC1)C1CC1 [Compound 131, 3-(N,N-Dicyclopropylsulfamoyl)-2-isopropyl-N-phenylimidazo[1,2-a]pyridine-7-carboxamide]
IC50: < 100 nM

CC(C)c1nc2cc(C(=O)Nc3ccccc3)ccn2c1S(=O)(=O)N(C)c1ccccc1 [Compound 132, 2-Isopropyl-3-(N-methyl-N-phenylsulfamoyl)-N-phenylimidazo[1,2-a]pyridine-7-carboxamide]
IC50 [1]: < 100 nM

CC(C)c1nc2cc(C(=O)NOCc3ccccc3)ccn2c1S(=O)(=O)N1CC(F)(F)C1 [Compound 135, N-(Benzyloxy)-3-(3,3-difluoroazetidin-1-ylsulfonyl)-2-isopropylimidazo[1,2-a]pyridine-7-carboxamide]
IC50 [1]: < 100 nM

CC(C)c1nc2cc(C(=O)N3CCc4ccccc43)ccn2c1S(=O)(=O)N1CCCCC1 [Compound 136, Indolin-1-yl{2-isopropyl-3-(piperidin-1-ylsulfonyl)imidazo[1,2-a]pyridin-7-yl}methanone]
IC50: < 100 nM

O=C(Nc1ccccc1)c1ccn2c(S(=O)(=O)N3CC(F)(F)C3)c(C3CC3)nc2c1 [Compound 138, 2-Cyclopropyl-3-(3,3-difluoroazetidin-1-ylsulfonyl)-N-phenylimidazo[1,2-a]pyridine-7-carboxamide]
IC50: < 100 nM

CS(=O)(=O)c1nc2cc(C(=O)Nc3ccccc3)ccn2c1S(=O)(=O)N1CCC(F)(F)CC1 [Compound 143, 3-(4,4-Difluoropiperidin-1-ylsulfonyl)-2-(methylsulfonyl)-N-phenylimidazo[1,2-a]pyridine-7-carboxamide]
IC50 [1]: < 100 nM

O=C(Nc1ccccc1)c1ccn2c(S(=O)(=O)N3CC(F)(F)C3)c(C(F)(F)F)nc2c1 [Compound 146, 3-(3,3-Difluoroazetidin-1-ylsulfonyl)-N-phenyl-2-trifluoromethylimidazo[1,2-a]pyridine-7-carboxamide]
IC50 [1]: < 100 nM

CN(C(C)(C)C)S(=O)(=O)c1c(C(F)(F)F)nc2cc(C(=O)Nc3ccccc3)ccn12 [Compound 147, 3-(N-tert-Butyl-N-methylsulfamoyl)-N-phenyl-2-trifluoromethylimidazo[1,2-a]pyridine-7-carboxamide]
IC50: < 100 nM

CC(C)c1nc2cc(C(=O)Nc3ccccc3N)c(Cl)cn2c1S(=O)(=O)N1CC(F)(F)C1 [Compound 149, N-(2-Aminophenyl)-6-chloro-3-(3,3-difluoroazetidin-1-ylsulfonyl)-2-isopropylimidazo[1,2-a]pyridine-7-carboxamide]
IC50 [1]: < 100 nM

CC(C)c1nc2cc(C(=O)NCC3CC3)c(Cl)cn2c1S(=O)(=O)N1CC(F)(F)C1 [Compound 150, 6-Chloro-N-cyclopropylmethyl-3-(3,3-difluoroazetidin-1-ylsulfonyl)-2-isopropylimidazo[1,2-a]pyridine-7-carboxamide]
IC50 [1]: < 100 nM

CC(C)c1nc2cc(C(=O)NC3CC(F)(F)C3)c(Cl)cn2c1S(=O)(=O)N1CC(F)(F)C1 [Compound 151, 6-Chloro-3-(3,3-difluoroazetidin-1-ylsulfonyl)-N-(3,3-difluorocyclobutyl)-2-isopropylimidazo[1,2-a]pyridine-7-carboxamide]
IC50: < 100 nM

CC(C)c1nc2cc(C(=O)NOCc3ccccc3)c(Cl)cn2c1S(=O)(=O)N1CC(F)(F)C1 [Compound 152, N-Benzyloxy-6-chloro-3-(3,3-difluoroazetidin-1-ylsulfonyl)-2-isopropylimidazo[1,2-a]pyridine-7-carboxamide]
IC50 [1]: < 100 nM

CC(C)c1nc2cc(C(=O)NC3CCOC(C)(C)C3)c(Cl)cn2c1S(=O)(=O)N1CC(F)(F)C1 (stereo not shown) [Compound 153, 6-Chloro-3-(3,3-difluoroazetidin-1-ylsulfonyl)-N-(2,2-dimethyltetrahydro-2H-pyran-4-yl)-2-isopropylimidazo[1,2-a]pyridine-7-carboxamide]
IC50: < 100 nM

CC(C)c1nc2cc(C(=O)Nc3ccccc3)c(Cl)cn2c1S(=O)(=O)NC1CC(F)(F)C1 [Compound 154, 6-Chloro-3-{N-(3,3-difluorocyclobutyl)sulfamoyl}-2-isopropyl-N-phenylimidazo[1,2-a]pyridine-7-carboxamide]
IC50 [1]: < 100 nM

CC(C)c1nc2cc(C(=O)Nc3ccccc3)c(Cl)cn2c1S(=O)(=O)Nc1ccccc1 [Compound 155, 6-Chloro-2-isopropyl-N-phenyl-3-(N-phenylsulfamoyl)imidazo[1,2-a]pyridine-7-carboxamide]
IC50 [1]: < 100 nM

CC(C)c1nc2cc(C(=O)Nc3ccccc3)c(Cl)cn2c1S(=O)(=O)NC(C)(C)C [Compound 156, 3-(N-tert-Butylsulfamoyl)-6-chloro-2-isopropyl-N-phenylimidazo[1,2-a]pyridine-7-carboxamide]
IC50 [1]: < 100 nM

Cc1cc(NC(=O)c2cc3nc(C(C)C)c(S(=O)(=O)NC(C)(C)C)n3cc2Cl)on1 [Compound 157, 3-(N-tert-Butylsulfamoyl)-6-chloro-2-isopropyl-N-(3-methylisooxazol-5-yl)imidazo[1,2-a]pyridine-7-carboxamide]
IC50 [1]: < 100 nM

CC(C)c1nc2cc(C(=O)NC3CC(F)(F)C3)c(Cl)cn2c1S(=O)(=O)NC(C)(C)C [Compound 158, 3-(N-tert-Butylsulfamoyl)-6-chloro-N-(3,3-difluorocyclobutyl)-2-isopropylimidazo[1,2-a]pyridine-7-carboxamide]
IC50 [1]: < 100 nM

CC(C)c1nc2cc(C(=O)NOCc3ccccc3)c(Cl)cn2c1S(=O)(=O)NC(C)(C)C [Compound 159, N-Benzyloxy-3-(N-tert-butylsulfamoyl)-6-chloro-2-isopropylimidazo[1,2-a]pyridine-7-carboxamide]
IC50 [1]: < 100 nM
